US7311393B2, “Inkjet recording ink and method of inkjet recording” (Fujifilm Corporation, priority 2002, dated 2007)

Experiments:
[1] = Oxidation potential of dye; type: physicochemical; details: comparative dyes
Protocol: More specifically, a test sample is dissolved to a concentration of 1×10^−4 to 1×10^−6 mol/liter in a solvent such as dimethylformamide or acetonitrile containing a supporting electrolyte such as sodium perchlorate or tetrapropylammonium perchlorate and the oxidation potential is measured as a value to SCE (saturated calomel electrode) by using a cyclic voltammetry or a direct current polarography. This value sometimes deviates on the order of tens of millivolt due to the effect of liquid junction potential, liquid resistance of sample solution, or the like, but the reproducibility of potential can be guaranteed by adding a standard sample (for example, hydroquinone).
In order to univocally specify the potential, in the present invention, the value (vs SCE) measured by a direct current polarography in a dimethylformamide (concentration of dye: 0.001 mol dm^−3) containing 0.1 mol dm^−3 of tetrapropylammonium perchlorate as the supporting electrolyte is used as the oxidation potential of the dye.

[2] = Spectral absorption characteristics of dye; type: physicochemical; details: comparative dyes
Source text: The dye for use in the present invention preferably has good fastness and also has good color hue, particularly, no tailing on the long-wave side in the absorption spectrum. […]

Compound	oxidation potential [1]	I(λmax)/I(λmax+70 nm) [2]
Cc1nn(-c2ccc(S(=O)(=O)[O-])cc2)c(O)c1/N=N/c1cccc(S(=O)(=O)Nc2cc(C(=O)[O-])cc(C(=O)[O-])c2)c1.[K+].[K+].[K+] [Dye (C)]	≤ 1.0 V (vs SCE)	≤ 0.4
Direct Yellow 11 [Dye (D)]	≤ 1.0 V (vs SCE)	> 0.4
